Measured values taken from patent US9604926B2 (THE UNIVERSITY OF MISSISSIPPI, priority 2007, dated 2017).
Entries after “also recorded” stand apart in the source; their conditions may differ.

Tests used:
σ-2 receptor = σ-2 receptor (Rattus norvegicus (Rat), UniProt Q5U3Y7); experiment: σ-2 receptor binding in rat brain homogenates ([3H]DTG plus (+)-pentazocine); conditions: read-out: Ki (nm) σ2; compound listing tables
Protocol: Compounds were evaluated for σ-1 and σ-2 binding in rat brain homogenates. […] The assays were terminated with ice-cold 10 mM Tris-HCl, pH 8.0, followed by two washes through glass fiber filters that were pre-soaked for at least 30 min in 0.5% polyethyleneimine.

[1] = Metabolic stability of AZ_66 in rat liver microsomes; format: in vitro ADME
Protocol: Metabolic stability of AZ_66 (1 μM) was performed in Ammonium acetate buffer (50 mM, pH 7.4) with Rat liver microsomes (0.5 mg) at 37° C. in 0.5 ml of incubation mixture. The incubation mixture composed of Ammonium acetate buffer (50 mM, pH 7.4), Magnesium chloride (3 mM), NADPH regenerating system consisting of NADP (1 mM), glucose-6-phosphate (5 mM), and glucose-6-phosphate dehydrogenase (1 Unit/mL). The Substrate and microsomes were pre incubated at 37° C. for 5 min before starting the reaction. The reactions were started by the addition of regenerating system and carried out at 37° C. in a shaking water bath for 60 min. The incubations were stopped by adding equal volume of ice cold acetonitrile at predetermined time points (0, 5, 15, 30, 60 min). The samples were centrifuged for 10 min at 4° C. and the supernatant was injected in to UPLC/MS/MS. Control incubation without NADPH was also performed and these served as 100% value. All microsomal incubations were conducted using the same lot of microsomes.
In vitro half-life and CLint: The percent of the parent compound remaining is plotted versus time. The slope of the line gives the rate constant k for the disappearance of parent compound, from which an in vitro t1/2 can be calculated. CLint can be calculated using the following formula
[formula] [V] is the incubation volume in μl and [P] is the amount of microsomal protein in the incubation.

opioid receptors = experiment: Non-σ competition binding, opioid receptors ([3H]bremazocine); conditions: rat brain homogenates
Protocol: (§1) Compounds were tested at various non-σ target sites to evaluate selectivity because cocaine interacts with these sites (dopamine, serotonin and norepinephrine transporters) or historic “sigma” ligands interact with them (opioid, NMDA, dopamine D2, 5-HT2 receptors). The compounds were tested in competition binding assays using rat brain homogenates as previously published. […] The results were reported as Ki in nM.

Swiss Webster mice [2] = experiment: Cocaine-induced locomotor activity; format: in vivo, mouse; conditions: i.p. pretreatment 15 min before cocaine 20 mg/kg i.p.
Protocol: Male, Swiss Webster mice were acclimated to the treatment room and then to the chambers of the automated activity monitoring system (San Diego Instruments, San Diego, Calif.). […] The total locomotor activity (ambulatory, fine and rearing movements) of the mice was recorded for the next 30 min as the number of disruptions made by them in the 16×16 photobeam grid of their testing chamber.

Swiss Webster mice [3] = experiment: Methamphetamine-induced locomotor activity; format: in vivo, mouse; conditions: i.p. pretreatment 15 min before methamphetamine 1 mg/kg i.p.
Protocol: (§2) Male, Swiss Webster mice were acclimated as detailed above. […] The total locomotor activity (ambulatory, fine and rearing movements) of the mice was recorded for the next 30 min as the number of disruptions made by them in the 16×16 photobeam grids surrounding their testing chambers.

Swiss Webster mice [4] = experiment: Expression of cocaine-induced sensitization; format: in vivo, mouse; conditions: compound on Day 15 before cocaine 10 mg/kg i.p.
Protocol: Male, Swiss Webster mice were acclimated as detailed above. For five consecutive days (Days 1-5), the mice were pretreated (i.p) with saline, then challenged 15 min later with cocaine (10 mg/kg, i.p.). The total locomotor activity (ambulatory, fine and rearing movements) of the mice was recorded for the next 30 min. A 10 day drug free period followed and on Day 15, the mice were administered saline (i.p.) or compound (0.1-20 mg/kg), followed 15 min later with cocaine (10 mg/kg, i.p.). Locomotor activity was then recorded for the next 30 min.

Swiss Webster mice [5] = experiment: Cocaine-induced convulsions; format: in vivo, mouse; conditions: i.p. pretreatment 15 min before cocaine 70 mg/kg i.p.
Swiss Webster mice [6] = experiment: Methamphetamine-induced dopamine depletions; format: in vivo, mouse; conditions: methamphetamine 5 mg/kg x4 at 2 hr intervals, striatal dopamine one week later
Protocol: Male, Swiss Webster mice were injected (i.p.) with saline or compound (0-20 mg/kg), followed 15 min later with either saline (-METH) or methamphetamine (5 mg/kg) at 2 hr intervals, a total of four times. Striatal dopamine levels were measured one week later.

[7] = In vitro half-life in mouse liver microsomes; format: in vitro ADME
Protocol: The reaction was initiated by adding cofactors and quenched at designated time points (0, 5, 10, 15, 30, 45, 60 min) by addition of an equal volume of ice-cold acetonitrile (ACN). […].
The basic incubation mixture consisted of 5 mM substrate, 1 mg/mL microsomal protein, 3 mM MgCl2, 1 mM NADP, 5 mM glucose-6-phosphate, 1 IU/mL glucose-6-phosphate dehydrogenase, 100 mM Tris HCl buffer (pH 7.4) in a final volume of 1 mL. The reaction was initiated by adding cofactors and quenched at designated time points (0, 5, 10, 15, 30, 45, 60 min) by addition of an equal volume of ice-cold ACN. The mixture was centrifuged at 3000 rpm for 10 min, and the supernatant was analysed by UPLC/MS/MS.

[8] = format: in vitro ADME
Swiss Webster mice [9] = experiment: In vivo cocaine studies with CM304 (cocaine-induced convulsions); conditions: 0.001-10 mg/kg i.p. 15 min before cocaine 70 mg/kg i.p., hydrochloride
[10] = Partition coefficient (Log P / Log D), shake-flask n-octanol and water/PBS; format: physicochemical; conditions: read-out: experimental Log P O/W±SD
Protocol: Using the Shake-flask method, 47 n-Octanol and water/PBS, pH 7.4 (equal quantity) were added to a glass vial (25 ml). […] Water/PBS, pH 7.4 phase was brought into a vessel together with a Teflon-coated magnetic stirring bar. The n-octanol phase containing the known quantity of test substance was poured very carefully on top of the aqueous phase in order to avoid emulsion formation as far as possible. […] The contents were allowed to separate on standing and then centrifuged. An aliquot of aqueous layer was taken and diluted (1000 times) for quantitative analysis by UPLC/MS/MS.

59 targets (non-sigma) = experiment: NovaScreen and in-house profile of 59 targets; format: binding; conditions: nine targets
Protocol: Competition binding assays were performed as previously described. Briefly, radioligands were used to tag the targeted sites under standard conditions.

σ-1 receptor = σ-1 receptor (Homo sapiens (Human), UniProt Q99720); conditions: literature, cited from earlier work
Chain of σ-1 receptor (Q99720 whole entry, species assumed): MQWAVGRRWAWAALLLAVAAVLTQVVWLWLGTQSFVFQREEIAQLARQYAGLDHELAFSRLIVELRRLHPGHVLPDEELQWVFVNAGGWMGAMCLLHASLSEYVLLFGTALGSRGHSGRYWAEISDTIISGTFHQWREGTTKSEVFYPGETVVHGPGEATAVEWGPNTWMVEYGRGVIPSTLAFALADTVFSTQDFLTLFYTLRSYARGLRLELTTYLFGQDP

NMDA receptors = experiment: Non-σ competition binding, NMDA receptors ([3H]TCP); conditions: rat brain homogenates
Protocol: as §1

5-HT2 receptors = 5-HT2 receptors (Rattus norvegicus (Rat), UniProt P14842); experiment: Non-σ competition binding, 5-HT2 receptors ([3H]ketanserin); conditions: rat brain homogenates
Chain of 5-HT2 receptors (P14842 whole entry): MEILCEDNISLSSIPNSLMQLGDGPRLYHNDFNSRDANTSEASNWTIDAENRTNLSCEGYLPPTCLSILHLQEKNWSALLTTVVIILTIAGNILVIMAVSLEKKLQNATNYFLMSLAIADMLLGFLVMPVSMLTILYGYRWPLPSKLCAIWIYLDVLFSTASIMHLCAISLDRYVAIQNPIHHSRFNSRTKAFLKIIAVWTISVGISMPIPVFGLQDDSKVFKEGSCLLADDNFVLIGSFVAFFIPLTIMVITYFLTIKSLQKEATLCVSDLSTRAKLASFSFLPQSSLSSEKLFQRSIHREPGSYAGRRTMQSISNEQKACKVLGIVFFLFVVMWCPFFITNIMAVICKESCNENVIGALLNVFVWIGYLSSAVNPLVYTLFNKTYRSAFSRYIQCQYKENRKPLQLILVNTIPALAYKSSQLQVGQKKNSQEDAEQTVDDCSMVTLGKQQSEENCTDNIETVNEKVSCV
Protocol: as §1

dopamine D2 receptors = dopamine D2 receptors (Rattus norvegicus (Rat), UniProt P61169); experiment: Non-σ competition binding, dopamine D2 receptors ([3H](−)-sulpiride); conditions: rat brain homogenates
Chain of dopamine D2 receptors (P61169 whole entry): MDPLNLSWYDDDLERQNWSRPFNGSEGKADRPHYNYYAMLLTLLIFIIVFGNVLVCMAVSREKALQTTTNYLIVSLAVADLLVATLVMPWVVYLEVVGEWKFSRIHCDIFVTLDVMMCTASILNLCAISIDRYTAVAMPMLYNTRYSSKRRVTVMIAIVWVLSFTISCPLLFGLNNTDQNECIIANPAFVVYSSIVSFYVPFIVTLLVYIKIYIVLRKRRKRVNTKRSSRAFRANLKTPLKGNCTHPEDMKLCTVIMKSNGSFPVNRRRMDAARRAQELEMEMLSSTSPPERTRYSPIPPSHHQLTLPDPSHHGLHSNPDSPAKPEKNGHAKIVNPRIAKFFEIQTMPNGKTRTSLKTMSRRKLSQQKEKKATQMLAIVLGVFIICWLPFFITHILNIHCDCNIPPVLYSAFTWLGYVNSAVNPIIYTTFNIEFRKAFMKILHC
Protocol: as §1

Swiss Webster mice [11] = experiment: Development of cocaine-induced sensitization; format: in vivo, mouse; conditions: pretreatment Days 1-5, cocaine 10 mg/kg i.p., test Day 15
Protocol: as §2, with “of” for “surrounding”, “chamber on each of the five days. A 10 day drug-free period followed. On Day 15, all of the mice were pre-administered (i.p.) saline followed by cocaine (10 mg/kg, i.p.), and locomotor activity quantified for the next 30 min.” for “chambers.”

mouse brain = conditions: mice, literature; cited from earlier work
[12] = target: σ-1 receptor (CHO cells transfected with σ-1 receptor cDNA) (Homo sapiens (Human), UniProt Q99720); experiment: Cell uptake studies in transfected CHO cells; conditions: 120 min
Chain of σ-1 receptor (CHO cells transfected with σ-1 receptor cDNA) (Q99720 whole entry): as the sequence (Q99720 whole entry, species assumed) above
Protocol: Control CHO cells (transfected with a vector not containing the σ-1 receptor gene—to serve as a negative control) and CHO cells transfected with a vector containing σ-1 receptor cDNA (to serve as a positive control for σ-1 receptor expression in cells) were used for the uptake assays. […] The incubated cells were subsequently washed, lysed and counted for radioactivity. All collected data were normalized for amount of protein present in each well.
Cells CHO cells were grown in Ham's F-12 medium. For uptake studies CHO cells were transfected using Lipofectamine 2000 (Invitrogen, Carlsbad, Calif., USA) and either pcDNA (empty vector, negative control) or σ-1 receptor gene (OPRS1, accession number NM_005866.2, OriGene, Rockville, Md., USA) following manufacturers directions. […] Twenty-four hours later, CHO cells were transfected with either 0.8 μg pcDNA (empty vector, control), or 0.8 μg sigma-1 DNA. […] A portion of each lysate (250 μL) was transferred to a glass tube and activity was measured with a Cobra II γ counter (Packard-Perkin Elmer, Waltham, Mass., USA). Protein content from each well was measured by Bradford assay. The same protocol was followed for (+)-[^3H]pentazocine, except the activity was measured with a liquid scintillation counter (Beckman Coulter LS 6500, Brea, Calif., USA).

rat brain = conditions: literature; cited from earlier work

Chain of σ-2 receptor (Q5U3Y7 whole entry): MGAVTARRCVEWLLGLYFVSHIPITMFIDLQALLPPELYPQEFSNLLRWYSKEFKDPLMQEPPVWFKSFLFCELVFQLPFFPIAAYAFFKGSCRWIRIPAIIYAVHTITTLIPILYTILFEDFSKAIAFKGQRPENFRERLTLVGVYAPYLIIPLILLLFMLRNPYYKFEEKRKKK

CC(CCCn1c(=O)sc2cc(F)ccc21)N1CCN(C2CCCCC2)CC1 (stereo not drawn) [AZ-66]
Ki (σ-2 receptor): 0.00176 ± 0.00034 µM
CLint whole liver ([1]; AZ_66 1 μM, rat): 0.002434 L/min
half-life at 1 μM ([1]; pH 7.4, rat liver microsomes, 1 μM, 0-30 min linear part, read-out: estimated t1/2 for disappearance): 116 ± 15 min
added substrate metabolized by 60 min ([1]; rat liver microsomes, 60 min): about 25%
microsomal CLint at 1 μM ([1]; rat, rat liver microsomes, pH 7.4, read-out: estimated CLint from microsomes): 6 µL/min/mg

S=c1sc2ccccc2n1CCCCN1CCN(C2CCCCC2)CC1 [CM156]
Ki (opioid receptors): > 10 µM
attenuation of cocaine-induced locomotor activity (Swiss Webster mice [2]): significant attenuation; also recorded: attenuates cocaine-induced locomotor activity
attenuation of methamphetamine-induced locomotor activity (Swiss Webster mice [3]): attenuated the locomotor stimulant effects of methamphetamine; also recorded: attenuates methamphetamine-induced locomotor activity
attenuation of expression of cocaine-induced sensitization (Swiss Webster mice [4]): significant attenuation; also recorded: attenuates the expression of cocaine-induced sensitization
attenuation of cocaine-induced convulsions (Swiss Webster mice [5]): significant attenuation; also recorded: attenuates the convulsive effects of cocaine
attenuation of methamphetamine-induced dopamine depletions (neurotoxic effects) (Swiss Webster mice [6]): attenuated; also recorded: attenuates methamphetamine-induced dopamine depletions

Cl.O=c1sc2cc(CCCF)ccc2n1CCN1CCCCCC1 [CM304, 3-(2-(azepan-1-yl)ethyl)-6-(3-fluoropropyl)benzo[d]thiazol-2(3H)-one hydrochloride]
clearance in mouse liver microsomes [7]: 0.55 mL/min/g
half-life at 5 mM ([7]; mouse, microsomes, pH 7.4): 4.2 min
clearance in rat liver microsomes [8]: 0.18 mL/min/g
attenuation of cocaine-induced convulsions by CM304 (Swiss Webster mice [9]): significantly attenuated cocaine-induced convulsions at all doses examined
logP [10]: -0.15 ± 0.05
displacement of the radioligand at 100 nM (59 targets (non-sigma); 100 nM screening concentration): < 20%
displacement of the radioligand at 10,000 nM (59 targets (non-sigma); 10,000 nM screening concentration): > 50%

CCCc1ccc2c(c1)sc(=O)n2CCN1CCCCC1 [SN56]
Selectivity Ratio for the σ-1 receptor (reported) (σ-1 receptor): > 1000
Ki (σ-1 receptor; read-out: Ki at σ-1 receptor (reported)): 0.00056 µM

CC(=O)c1ccc2c(c1)oc(=O)n2CCCCN1CCN(c2ccc(F)cc2)CC1.Cl.Cl [SN-79]
Ki (NMDA receptors): > 10 µM
Ki (opioid receptors): > 10 µM
Ki (5-HT2 receptors): 0.32 ± 0.016 µM
attenuation of cocaine-induced locomotor activity (Swiss Webster mice [2]): significant attenuation; also recorded: attenuates cocaine-induced locomotor activity
Ki (dopamine D2 receptors): > 10 µM
attenuation of expression of cocaine-induced sensitization (Swiss Webster mice [4]): attenuates the expression of cocaine-induced sensitization
attenuation of cocaine-induced convulsions (Swiss Webster mice [5]): significant attenuation; also recorded: attenuates the convulsive effects of cocaine
attenuation of development of cocaine-induced sensitization (Swiss Webster mice [11]): significant attenuation; also recorded: attenuates the development of cocaine-induced sensitization

O=C(Cc1ccccc1F)NC1CCN(Cc2ccc([18F])cc2)CC1 [[^18F]FBFPA, N-[^18F]4′-fluorobenzylpiperidin-4yl-(2-fluorophenyl) acetamide, reference compound]
affinity for σ-2 receptor/σ-1 receptor (reported) (σ-1 receptor): 44

COc1cc(CCN2CCN(CCCc3ccccc3)CC2)ccc1OC[18F] [[^18F]FM-SA4503]
time of maximum uptake in the brain (mouse brain): 30 minutes post injection

O=c1sc2cc(CCC[18F])ccc2n1CCN1CCCCCC1 [[^18F]FTC-146, 6-(3-fluoropropyl)-3-(2-(azapan-1-yl)ethyl)benzo[d]thiazol-2(3H)-one]
uptake in cells transfected with σ-1 receptor cDNA versus control CHO cells [12]: 4 fold

N#Cc1ccc(OCC2CCN(CC[18F])CC2)cc1 [[^18F]SFE]
reduction in peak uptake in rat brain over a 90 min period (rat brain): 40%

[17F]CCC1OC2(CCN(Cc3ccccc3)CC2)c2ccccc21 (stereo not drawn) [[^18F]fluspidine]
brain level at 60 minutes post injection relative to maximum (reported) (mouse brain): 81 % of its maximum
